Data on 28 compounds can be found in patent publication US20240018133A1, “MODULATORS OF THE INTEGRATED STRESS PATHWAY” (Calico Life Sciences LLC, priority 2019, published 2024).

The test system of the assay is ATF4 luciferase reporter (human full-length ATF4 5'-UTR fused to firefly luciferase) in HEK293T cells. Description: ATF4-Luc assay (in vitro model of VWMD): HEK293T cells carrying ATF4 luciferase reporter, tunicamycin-treated. The assay is classed as cell-based. The note with it: Homo sapiens, HEK-293T, 1 μg/mL tunicamycin, 7 hours, One Glo luminescence. In short, it runs like this: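 Reporter cells were stably generated by retroviral transduction and puromycin selection, then seeded at 30,000 cells/well. Next day, cells received 1 μg/mL tunicamycin with 200 nM test compound for 7 h, and luciferase luminescence was read with a one-step reagent. Values reported as EC50.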
In general terms: In a reporter assay the amount or activity of a reporter protein is the signal.

A value given as a limit tells only on which side of the number the result lay.

Usually EC50 stands for the midpoint of the concentration-response curve. For `O=C(COc1ccc(F)c(F)c1)NC12CC(NC(=O)[C@@H]3CC(=O)c4cc(Cl)ccc4O3)(C1)C2` [Compound 276, (2S)-6-chloro-N-{3-[2-(3,4-difluorophenoxy)acetamido]bicyclo[1.1.1]pentan-1-yl}-4-oxo-3,4-dihydro-2H-1-benzopyran-2-carboxamide], the EC50 lay in the range of 10 to 50 nM.
As for `O=C(COc1ccc(F)c(F)c1)NC12CC(NC(=O)[C@H]3C[C@@H](O)c4cc(Cl)ccc4O3)(C1)C2` [Compound 277, (2R,4R)-6-chloro-N-{3-[2-(3,4-difluorophenoxy)acetamido]bicyclo[1.1.1]pentan-1-yl}-4-hydroxy-3,4-dihydro-2H-1-benzopyran-2-carboxamide], the EC50 is under 10 nM.
Then `O=C(COc1ccc(F)c(F)c1)NC12CC(NC(=O)[C@@H]3C[C@H](O)c4cc(Cl)ccc4O3)(C1)C2` [Compound 278, (2S,4S)-6-chloro-N-{3-[2-(3,4-difluorophenoxy)acetamido]bicyclo[1.1.1]pentan-1-yl}-4-hydroxy-3,4-dihydro-2H-1-benzopyran-2-carboxamide], with 10 to 50 nM; and `O=C(COc1ccc(Cl)c(F)c1)NC12CC(NC(=O)[C@@H]3C=Cc4cc(Cl)ccc4O3)(C1)C2` [Compound 279, (2S)-6-chloro-N-{3-[2-(4-chloro-3-fluorophenoxy)acetamido]bicyclo[1.1.1]pentan-1-yl}-2H-1-benzopyran-2-carboxamide], with under 10 nM.
Take `Cc1cc(Cl)cc2c(=O)cc(C(=O)NC34CC(NC(=O)COc5ccc(Cl)c(F)c5)(C3)C4)oc12` [Compound 282, 6-chloro-N-{3-[2-(4-chloro-3-fluorophenoxy)acetamido]bicyclo[1.1.1]pentan-1-yl}-8-methyl-4-oxo-4H-1-benzopyran-2-carboxamide]: the concentration for a half-maximal effect (EC50) is over 2000 nM.
On to `COc1ccc2c(=O)cc(C(=O)NC34CC(NC(=O)COc5ccc(Cl)c(F)c5)(C3)C4)oc2c1` [Compound 283, N-{3-[2-(4-chloro-3-fluorophenoxy)acetamido]bicyclo[1.1.1]pentan-1-yl}-7-methoxy-4-oxo-4H-1-benzopyran-2-carboxamide], for which the EC50 was in the range of 10 to 50 nM.
Turning to `Cc1ccc2c(=O)cc(C(=O)NC34CC(NC(=O)COc5ccc(Cl)c(F)c5)(C3)C4)oc2c1` [Compound 284, N-{3-[2-(4-chloro-3-fluorophenoxy)acetamido]bicyclo[1.1.1]pentan-1-yl}-7-methyl-4-oxo-4H-1-benzopyran-2-carboxamide], the EC50 was 10 to 50 nM.
Then `Cc1cc2oc(C(=O)NC34CC(NC(=O)COc5ccc(Cl)c(F)c5)(C3)C4)cc(=O)c2cc1C` [Compound 285, N-{3-[2-(4-chloro-3-fluorophenoxy)acetamido]bicyclo[1.1.1]pentan-1-yl}-6,7-dimethyl-4-oxo-4H-1-benzopyran-2-carboxamide], with under 10 nM; and `O=C(COc1ccc(Cl)c(F)c1)NC12CC(NC(=O)c3cc(=O)c4ccc(OC(F)F)cc4o3)(C1)C2` [Compound 286, N-{3-[2-(4-chloro-3-fluorophenoxy)acetamido]bicyclo[1.1.1]pentan-1-yl}-7-(difluoromethoxy)-4-oxo-4H-1-benzopyran-2-carboxamide], with 50 to 250 nM; and `COc1ccc2oc(C(=O)NC34CC(NC(=O)COc5ccc(Cl)c(F)c5)(C3)C4)cc(=O)c2c1` [Compound 287, N-{3-[2-(4-chloro-3-fluorophenoxy)acetamido]bicyclo[1.1.1]pentan-1-yl}-6-methoxy-4-oxo-4H-1-benzopyran-2-carboxamide], with 50 to 250 nM.
Then `O=C(COc1ccc(Cl)c(F)c1)NC12CC(NC(=O)c3cc(=O)c4cc(Cl)cc(Cl)c4o3)(C1)C2` [Compound 289, 6,8-dichloro-N-{3-[2-(4-chloro-3-fluorophenoxy)acetamido]bicyclo[1.1.1]pentan-1-yl}-4-oxo-4H-1-benzopyran-2-carboxamide], with 500 to 2000 nM; and `CC(C)c1ccc2oc(C(=O)NC34CC(NC(=O)COc5ccc(Cl)c(F)c5)(C3)C4)cc(=O)c2c1` [Compound 290, N-{3-[2-(4-chloro-3-fluorophenoxy)acetamido]bicyclo[1.1.1]pentan-1-yl}-4-oxo-6-(propan-2-yl)-4H-1-benzopyran-2-carboxamide], with 10 to 50 nM.
As for `O=C(COc1ccc(Cl)c(F)c1)NC12CC(NC(=O)c3cc(=O)c4ccc5c(c4o3)OCO5)(C1)C2` [Compound 291, N-{3-[2-(4-chloro-3-fluorophenoxy)acetamido]bicyclo[1.1.1]pentan-1-yl}-6-oxo-2H,6H-[1,3]dioxolo[4,5-h][1]benzopyran-8-carboxamide], the EC50 was 50 to 250 nM.
For `O=C(COc1ccc(Cl)c(F)c1)NC12CC(NC(=O)c3cc(=O)c4cc(F)cc(F)c4o3)(C1)C2` [Compound 292, N-{3-[2-(4-chloro-3-fluorophenoxy)acetamido]bicyclo[1.1.1]pentan-1-yl}-6,8-difluoro-4-oxo-4H-1-benzopyran-2-carboxamide] the value was 50 to 250 nM; for `O=C(COc1ccc(Cl)c(F)c1)NC12CC(NC(=O)c3cc(=O)c4cccc(Cl)c4o3)(C1)C2` [Compound 294, 8-chloro-N-{3-[2-(4-chloro-3-fluorophenoxy)acetamido]bicyclo[1.1.1]pentan-1-yl}-4-oxo-4H-1-benzopyran-2-carboxamide], 500 to 2000 nM; for `O=C(COc1ccc(Cl)c(F)c1)NC12CC(NC(=O)c3cc(=O)c4ccc(O)cc4o3)(C1)C2` [Compound 295, N-{3-[2-(4-chloro-3-fluorophenoxy)acetamido]bicyclo[1.1.1]pentan-1-yl}-7-hydroxy-4-oxo-4H-1-benzopyran-2-carboxamide], over 2000 nM.
For `CCC1(O)CC(C(=O)NC23CC(NC(=O)COc4ccc(Cl)c(F)c4)(C2)C3)Oc2ccc(Cl)cc21` (stereo not shown) [Compound 297, 6-chloro-N-{3-[2-(4-chloro-3-fluorophenoxy)acetamido]bicyclo[1.1.1]pentan-1-yl}-4-ethyl-4-hydroxy-3,4-dihydro-2H-1-benzopyran-2-carboxamide] the value was under 10 nM.
Then `O=C(COc1ccc(Cl)c(F)c1)NC12CC(NC(=O)C3C/C(=N\O)c4cc(F)ccc4O3)(C1)C2` (stereo not shown) [Compound 298, N-{3-[2-(4-chloro-3-fluorophenoxy)acetamido]bicyclo[1.1.1]pentan-1-yl}-6-fluoro-4-(hydroxyimino)-3,4-dihydro-2H-1-benzopyran-2-carboxamide], with 10 to 50 nM; and `O=C(COc1ccc(C(F)(F)F)nc1)NC12CC(NC(=O)[C@@H]3C[C@H](O)c4cc(Cl)ccc4O3)(C1)C2` [Compound 299, (2S,4S)-6-chloro-4-hydroxy-N-[3-(2-{[6-(trifluoromethyl)pyridin-3-yl]oxy}acetamido)bicyclo[1.1.1]pentan-1-yl]-3,4-dihydro-2H-1-benzopyran-2-carboxamide], with 10 to 50 nM; and `O=C(COc1ccc(Cl)c(F)c1)NC12CC(NC(=O)C3CC(O)c4cc(F)ccc4O3)(C1)C2` (stereo not shown) [Compound 300, N-{3-[2-(4-chloro-3-fluorophenoxy)acetamido]bicyclo[1.1.1]pentan-1-yl}-6-fluoro-4-hydroxy-3,4-dihydro-2H-1-benzopyran-2-carboxamide], with under 10 nM.
In the case of `CNC1CC(C(=O)NC23CCC(NC(=O)COc4ccc(Cl)c(F)c4)(CC2)[C@@H](O)C3)Oc2ccc(Cl)cc21` (stereo partly drawn) [Compound 303, 6-chloro-N-{(3S)-4-[2-(4-chloro-3-fluorophenoxy)acetamido]-3-hydroxybicyclo[2.2.2]octan-1-yl}-4-(methylamino)-3,4-dihydro-2H-1-benzopyran-2-carboxamide], the EC50 is under 10 nM.
For `O=C(NC12CCC(NC(=O)C3CC(=O)c4cc(Cl)ccc4O3)(CC1)CC2)c1cnc(C(F)F)cn1` (stereo not shown) [Compound 304, N-{4-[(6-chloro-4-oxo-3,4-dihydro-2H-1-benzopyran-2-carbonyl)amino]bicyclo[2.2.2]octan-1-yl}-5-(difluoromethyl)pyrazine-2-carboxamide] the value was 500 to 2000 nM; for `NC1CC(C(=O)NC23CC(NC(=O)COc4ccc(Cl)c(F)c4)(C2)C3)Oc2ccc(Cl)cc21` (stereo not shown) [Compound 305, 4-amino-6-chloro-N-{3-[2-(4-chloro-3-fluorophenoxy)acetamido]bicyclo[1.1.1]pentan-1-yl}-3,4-dihydro-2H-1-benzopyran-2-carboxamide], under 10 nM.
Then `O=C(COc1ccc(Cl)c(F)c1)NC12CCC(NC(=O)[C@@H]3C[C@H](O)c4cc(Cl)ccc4O3)(CC1)CC2` [Compound 306, (2S,4S)-6-chloro-N-{4-[2-(4-chloro-3-fluorophenoxy)acetamido]bicyclo[2.2.2]octan-1-yl}-4-hydroxy-3,4-dihydro-2H-1-benzopyran-2-carboxamide], with 10 to 50 nM; and `O=C(COc1ccc(Cl)c(F)c1)NC12CC(NC(=O)[C@H]3C=Cc4cc(Cl)ccc4O3)(C1)C2` [Compound 307, (2R)-6-chloro-N-{3-[2-(4-chloro-3-fluorophenoxy)acetamido]bicyclo[1.1.1]pentan-1-yl}-2H-1-benzopyran-2-carboxamide], with under 10 nM; and `O=C(COc1ccc(Cl)c(F)c1)NC12CC(NC(=O)[C@H]3C[C@@H](NCCO)c4cc(Cl)ccc4O3)(C1)C2` [Compound 308, (2R,4R)-6-chloro-N-{3-[2-(4-chloro-3-fluorophenoxy)acetamido]bicyclo[1.1.1]pentan-1-yl}-4-[(2-hydroxyethyl)amino]-3,4-dihydro-2H-1-benzopyran-2-carboxamide], with 10 to 50 nM.
Then `O=C(COc1ccc(Cl)c(F)c1)NC12CC(NC(=O)[C@@H]3C[C@H](NCCO)c4cc(Cl)ccc4O3)(C1)C2` [Compound 309, (2S,4S)-6-chloro-N-{3-[2-(4-chloro-3-fluorophenoxy)acetamido]bicyclo[1.1.1]pentan-1-yl}-4-[(2-hydroxyethyl)amino]-3,4-dihydro-2H-1-benzopyran-2-carboxamide], with under 10 nM.
Take `O=C(COc1ccc(Cl)c(F)c1)NC12CCC(NC(=O)C3CC(=O)c4cc(Cl)ccc4O3)(C1)C2` (stereo not shown) [Compound 310, 6-chloro-N-{4-[2-(4-chloro-3-fluorophenoxy)acetamido]bicyclo[2.1.1]hexan-1-yl}-4-oxo-3,4-dihydro-2H-1-benzopyran-2-carboxamide]: the EC50 lay in the range of 10 to 50 nM.
